Data as given in PMC7717570, “Deciphering the enzymatic target of a new family of antischistosomal agents bearing a quinazoline scaffold using complementary computational tools” (Journal of Enzyme Inhibition and Medicinal Chemistry, 2020).
Read-outs that look alike come from different tables or passages of the source.

Legend:
[1] = system: Schistosoma mansoni mature worms; assay: In vitro S. mansoni worm killing; set-up: key to Worm killing (male worms) / Worm killing (female worms): % worm mortality = dead worms / total worms × 100; conditions: for killing at 5 µM / killing at 10 µM / killing at 25 µM / killing at 50 µM / killing at 100 µM / EC50: Schistosoma mansoni; for killing at 5 µM / killing at 10 µM / killing at 25 µM / killing at 50 µM / killing at 100 µM: 120 h, read-out: Worm killing (% of total); for Worm killing (female worms) / Worm killing (male worms): day 5
Experimental: The percentage reduction of worm or egg burden in each treated group was calculated. […] Results are expressed as mean ± SEM. A two-tailed, unpaired Student’s t-test was used to detect the significance of difference between the means of different groups. […] Stock solutions of 5 mM PZQ and the quinazoline derivatives 2–13 were prepared in DMSO. Concentrations of 100 µM, 50 µM, 25 µM, 10 µM and 5 µM were freshly prepared on the day of experiment in RPMI-1640 medium. All compounds were initially tested at 100 and 50 µM; those showing worm killing were further tested at 25, 10 and 5 µM. Worms were obtained from SBSC of TBRI. Six to eight worms were placed in 12-well tissue culture plates and fresh RPMI-1640 medium (supplemented with glutamine, 20% newborn calf serum and streptomycin, penicillin, and gentamicin), containing the indicated concentration of the test compound was added[20]^,[21]. Worms were incubated overnight in a CO2 incubator at 37 °C. On the 2nd day, worms were examined by microscopy, washed three times with normal saline, fresh medium was added and the incubation was continued. On the 3rd day, worm motility was observed and on the 4th day, medium was changed again. On day 5 (end of the observation period), worms were microscopically examined for their motility and appearance. Each concentration was tested in duplicate, and the final recording of percent worm mortality was determined as the number of dead worms [contracted and opaque] divided by the total number of worms × 100. Negative controls used medium without additions or medium with 2% DMSO; positive control media containing identical concentrations of PZQ were tested in parallel.

[2] = Microsomal stability, human liver microsomes (S9), Phase-II (UGT enzymes); format: in vitro ADME; conditions: 5 µM
Experimental: (§1) Mouse or human liver microsomes (S9), reduced nicotinamide adenine dinucleotide phosphate (NADPH) generating system solutions and uridine glucuronosyltransferase (UGT) reaction mix (BD Biosciences) were kept at −80 °C. The test compounds and reference compound diclofenac were formulated in DMSO at […]. The assay was carried out based on the BD Biosciences Guidelines for Use (TF000017 Rev1.0) with minor adaptations. The metabolic stability of the compounds was studied through the CYP450 superfamily (Phase-I metabolism) by fortification with NADPH and through UGT enzymes (Phase-II metabolism) by fortification with uridine diphosphate glucuronic acid (UDPGA). For CYP450 and other NADPH dependent enzymes, the compounds were incubated at 5 µM together with 0.5 mg/mL S9 in potassium phosphate buffer in a reaction started by the addition of 1 mM NADP. At defined time points, 20 µL was withdrawn from the reaction mixture and 80 µL cold acetonitrile (ACN) was added to inactivate the enzymes and precipitate the protein. The mixture was vortexed for 30 s and centrifuged at 4 °C for 5 min to collect the supernatant. For UGT enzymes, the compounds were incubated at 5 µM together with 0.5 mg/mL S9 in a reaction started by the addition of 2 mM UDPGA cofactor. The loss of parent compound was determined using liquid chromatography (UPLC) (Waters Aquity^TM) coupled with tandem quadrupole mass spectrometry (MS^2) (Waters Xevo^TM), equipped with an electrospray ionisation (ESI) interface and operated in multiple reaction monitoring (MRM) mode.

[3] = Microsomal stability, human liver microsomes (S9), Phase-I (CYP450-NADPH); format: in vitro ADME; conditions: 5 µM
Experimental: as §1

[4] = system: Schistosoma mansoni worm couples; assay: S. mansoni ovipositing capacity and coupling; conditions: for inhibition at 5 µM / inhibition at 10 µM / inhibition at 25 µM / inhibition at 50 µM / inhibition at 100 µM: Schistosoma mansoni, 120 h, read-out: Reduction in number of eggs (%)
Experimental: Stock solutions of 5 mM PZQ and the quinazoline derivatives 2–13 were prepared in DMSO. Concentrations of 100 µM, 50 µM, 25 µM, 10 µM and 5 µM were freshly prepared on the day of experiment in RPMI-1640 medium. All compounds were initially tested at 100 and 50 µM; those showing worm killing were further tested at 25, 10 and 5 µM. 12-well tissue culture plates were used, each well containing 6–8 worms with at least one worm couple. Worms were incubated overnight in a CO2 incubator at 37 °C. Each concentration was tested in duplicate wells. On day 4, eggs were counted and discarded and the medium was changed. On day 5 (end of observation period) newly deposited eggs were counted. The final egg number is the total count of days 4 and 5 for each concentration tested and the final recording of the percentage of egg reduction was determined as [the total number of eggs on days 4 and 5 of control – the total number of eggs on days 4 and 5 of treated]/the total number of eggs on days 4 and 5 of control × 100.

[5] = Microsomal stability, mouse liver microsomes (S9), Phase-I (CYP450-NADPH); format: in vitro ADME; conditions: 5 µM
Experimental: as §1

[6] = Microsomal stability, mouse liver microsomes (S9), Phase-II (UGT enzymes); format: in vitro ADME; conditions: 5 µM
Experimental: as §1

[7] = 5 µM, day 5, mature (6 weeks old) worms, dose-titration (Table 3)
[8] = 10 µM, day 5, mature (6 weeks old) worms, dose-titration (Table 3)
[9] = 25 µM, day 5, mature (6 weeks old) worms, dose-titration (Table 3)
[10] = 50 µM, day 5, initial test (Table 2)
[11] = 50 µM, day 5, mature (6 weeks old) worms, dose-titration (Table 3)
[12] = 100 µM, day 5, initial test (Table 2)
[13] = 100 µM, day 5, mature (6 weeks old) worms, dose-titration (Table 3)
[14] = males and females together, read-out: EC50 (worm killing)
[15] = read-out: EC50 (worm killing, female worms)
[16] = read-out: EC50 (worm killing, male worms)
[17] = 10 µM, dose-titration (Table 3)
[18] = 25 µM, dose-titration (Table 3)
[19] = 50 µM, dose-titration (Table 3)
[20] = 100 µM, dose-titration (Table 3)

COc1ccc(Cn2c(=O)c3cc(Cl)ccc3n(Cc3ccc(C(F)(F)F)cc3)c2=O)cc1 [compound 9, 6-Chloro-1-(4-(trifluoromethyl)benzyl)-3-(4-methoxybenzyl)quinazolin-2,4(1H,3H)-dione]
killing at 5 µM [1, 7]: 0%
killing at 10 µM [1, 8]: 0%
killing at 25 µM [1, 9]: 0%
killing at 50 µM [1, 10]: 29%
killing at 50 µM [1, 11]: 88%
killing at 100 µM [1, 12]: 100%
killing at 100 µM [1, 13]: 100%
EC50 [1, 14]: 47 µM
EC50 [1, 15]: 49 µM
EC50 [1, 16]: 41 µM
Worm killing (female worms) ([1]; 5 µM): 0
Worm killing (female worms) ([1]; 10 µM): 0
Worm killing (female worms) ([1]; 25 µM): 0
Worm killing (female worms) ([1]; 50 µM): 75
Worm killing (female worms) ([1]; 100 µM): 100
Worm killing (male worms) ([1]; 5 µM): 0
Worm killing (male worms) ([1]; 10 µM): 0
Worm killing (male worms) ([1]; 25 µM): 0
Worm killing (male worms) ([1]; 50 µM): 100
Worm killing (male worms) ([1]; 100 µM): 100
% Parent compound remaining upon incubation ([2]; 0 h): 100%
% Parent compound remaining upon incubation ([2]; 0.25 h): 94%
% Parent compound remaining upon incubation ([2]; 0.5 h): 95%
% Parent compound remaining upon incubation ([2]; 1 h): 97%
% Parent compound remaining upon incubation ([3]; 0 h): 100%
% Parent compound remaining upon incubation ([3]; 0.25 h): 104%
% Parent compound remaining upon incubation ([3]; 0.5 h): 61%
% Parent compound remaining upon incubation ([3]; 1 h): 67%
Uncoupling ([4]; 5 µM, dose-titration (Table 3)): No
Uncoupling [4, 17]: No
Uncoupling [4, 18]: Yes
Reduction in number of eggs (%) [4, 19]: 100%
Uncoupling [4, 19]: Yes
Uncoupling ([4]; 50 µM, initial test (Table 2)): Yes
Reduction in number of eggs (%) [4, 20]: 100%
Uncoupling [4, 20]: Yes
Uncoupling ([4]; 100 µM, initial test (Table 2)): Yes
inhibition at 5 µM ([4]; 5 µM, dose-titration (Table 3)): 67%
inhibition at 10 µM [4, 17]: 73%
inhibition at 25 µM [4, 18]: 100%
inhibition at 50 µM ([4]; 50 µM, initial test (Table 2)): 100%
inhibition at 100 µM ([4]; 100 µM, initial test (Table 2)): 100%
% Parent compound remaining upon incubation ([5]; 0 h): 100%
% Parent compound remaining upon incubation ([5]; 0.25 h): 91%
% Parent compound remaining upon incubation ([5]; 0.5 h): 51%
% Parent compound remaining upon incubation ([5]; 1 h): 44%
% Parent compound remaining upon incubation ([6]; 0 h): 100%
% Parent compound remaining upon incubation ([6]; 0.25 h): 101%
% Parent compound remaining upon incubation ([6]; 0.5 h): 103%
% Parent compound remaining upon incubation ([6]; 1 h): 105%

COc1cc2c(=O)n(Cc3ccc(F)cc3)c(=O)n(Cc3ccc(C(F)(F)F)cc3)c2cc1OC [compound 10, 3-(4-Fluorobenzyl)-1-(4-(trifluoromethyl)benzyl)-6,7-dimethoxyquinazolin-2,4(1H,3H)-dione]
killing at 5 µM [1, 7]: 0%
killing at 10 µM [1, 8]: 8%
killing at 25 µM [1, 9]: 50%
killing at 50 µM [1, 10]: 93%
killing at 50 µM [1, 11]: 100%
killing at 100 µM [1, 12]: 100%
killing at 100 µM [1, 13]: 100%
EC50 [1, 14]: 25 µM
EC50 [1, 15]: 26 µM
EC50 [1, 16]: 20 µM
Worm killing (female worms) ([1]; 5 µM): 0
Worm killing (female worms) ([1]; 10 µM): 0
Worm killing (female worms) ([1]; 25 µM): 33
Worm killing (female worms) ([1]; 50 µM): 100
Worm killing (female worms) ([1]; 100 µM): 100
Worm killing (male worms) ([1]; 5 µM): 0
Worm killing (male worms) ([1]; 10 µM): 14
Worm killing (male worms) ([1]; 25 µM): 63
Worm killing (male worms) ([1]; 50 µM): 100
Worm killing (male worms) ([1]; 100 µM): 100
% Parent compound remaining upon incubation ([2]; 0 h): 100%
% Parent compound remaining upon incubation ([2]; 0.25 h): 102%
% Parent compound remaining upon incubation ([2]; 0.5 h): 106%
% Parent compound remaining upon incubation ([2]; 1 h): 98%
% Parent compound remaining upon incubation ([3]; 0 h): 100%
% Parent compound remaining upon incubation ([3]; 0.25 h): 108%
% Parent compound remaining upon incubation ([3]; 0.5 h): 83%
% Parent compound remaining upon incubation ([3]; 1 h): 65%
Uncoupling ([4]; 5 µM, dose-titration (Table 3)): No
Uncoupling [4, 17]: No
Uncoupling [4, 18]: Yes
Uncoupling [4, 19]: Yes
Uncoupling ([4]; 50 µM, initial test (Table 2)): Yes
Uncoupling [4, 20]: Yes
Uncoupling ([4]; 100 µM, initial test (Table 2)): Yes
inhibition at 5 µM ([4]; 5 µM, dose-titration (Table 3)): 77%
inhibition at 10 µM [4, 17]: 80%
inhibition at 25 µM [4, 18]: 100%
inhibition at 50 µM ([4]; 50 µM, initial test (Table 2)): 100%
inhibition at 100 µM ([4]; 100 µM, initial test (Table 2)): 100%
% Parent compound remaining upon incubation ([5]; 0 h): 100%
% Parent compound remaining upon incubation ([5]; 0.25 h): 85%
% Parent compound remaining upon incubation ([5]; 0.5 h): 39%
% Parent compound remaining upon incubation ([5]; 1 h): 32%
% Parent compound remaining upon incubation ([6]; 0 h): 100%
% Parent compound remaining upon incubation ([6]; 0.25 h): 89%
% Parent compound remaining upon incubation ([6]; 0.5 h): 83%
% Parent compound remaining upon incubation ([6]; 1 h): 91%
